The target in test [1] is T1, human OCT2 (Homo sapiens, UniProt O15244).
T1 sequence (O15244 1-555): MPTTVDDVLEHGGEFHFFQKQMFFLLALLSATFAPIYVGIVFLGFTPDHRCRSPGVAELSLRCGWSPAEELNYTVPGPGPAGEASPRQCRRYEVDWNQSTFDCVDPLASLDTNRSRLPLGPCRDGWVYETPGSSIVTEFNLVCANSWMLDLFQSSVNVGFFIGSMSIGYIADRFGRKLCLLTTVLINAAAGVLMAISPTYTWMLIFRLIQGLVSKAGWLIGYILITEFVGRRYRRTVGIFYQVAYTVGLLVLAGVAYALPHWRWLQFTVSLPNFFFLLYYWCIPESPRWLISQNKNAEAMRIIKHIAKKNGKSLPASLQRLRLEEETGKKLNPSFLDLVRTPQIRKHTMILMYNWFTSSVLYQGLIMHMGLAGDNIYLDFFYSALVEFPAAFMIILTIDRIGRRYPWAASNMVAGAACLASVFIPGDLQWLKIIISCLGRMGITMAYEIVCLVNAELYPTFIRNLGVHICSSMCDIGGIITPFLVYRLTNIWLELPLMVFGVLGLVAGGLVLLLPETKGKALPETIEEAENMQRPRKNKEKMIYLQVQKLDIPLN
Briefly: Transport of TEA and MPP in CHO cells that stably expressed human OCT2. As to conditions: for true Kt for OCT2-mediated transport (suggested): authors' estimate in the discussion; for Ktapp of uptake: 30 sec uptakes. It is filed as cell-based.

The target in test [2] is T1, human OCT2. The note with it: ref Morales & Wright, unpublished; cited from earlier work.
Test [3] deals with T1, human OCT2. Briefly: Literature kinetic parameters for OCT2-mediated transport, cells. It counts as cell-based. The note with it: median of the values in Table I.
Setting [4] is: OCT2 knockdown cells (shRNA #6), paired studies, three (TEA) or four (MPP).
Setting [5] is: control (fully expressing) cells, paired studies, three (TEA) or four (MPP).
Setting [6] is: control (unshaken), 96 well plate, n=3.
The mark [7] stands for this setting: shaken (reciprocal, 13 Hz), 96 well plate, n=3.

Where two headings read alike, the source gives them in different places.

Consider `C[n+]1ccc(-c2ccccc2)cc1` [MPP, 1-Methyl-4-phenylpyridinium], for which the “increase of 30 sec uptake by shaking” value in test [1] (24 well plate, flat-bed orbital shaker 300 rpm (5 Hz), [3H] substrate, P < 0.05) stood at 50%. The Jmax turned out to be 6.1 ± 1.2 pmol cm^−2 min^−1 in test [1] (setting [4]); 35 pmol cm^−2 min^−1 in test [1] (Table I, present study); 64.7 ± 16.6 pmol cm^−2 min^−1 in test [1] (setting [5]); 35.4 ± 1.4 pmol cm^−2 min^−1 in test [1] (setting [6]); 37.4 ± 2.5 pmol cm^−2 min^−1 in test [1] (setting [7]). Besides, the “apparent Kt” value turned out to be 3.8 ± 0.5 µM in test [1] (setting [4]) and 16.6 ± 4.0 µM in test [1] (setting [5]). In addition, the Ktapp in test [1] (OCT2 knockdown cells, six paired experiments (n = 6)) amounted to 3.3 ± 0.9 µM; in test [1] (Table I, present study) it was 9 µM. In test [1], the “true Kt for OCT2-mediated transport (suggested)” value was 1 to 2 µM. For the same compound, the “Winne ‘bias’” value in test [1] (calculated from present study Jmax and a 1500 µm UWL) is on record as 7 µM. Further, the “maximum transport rates, fold lower than in parental OCT2-expressing cells” value in test [1] (cells with reduced OCT2 expression (RNAi)) was 11 fold. Moreover, the Ktapp of uptake is reported as 6.5 ± 0.4 µM in test [1] (setting [6]) and 4.5 ± 0.5 µM in test [1] (setting [7]). In test [1] (intercept of the Jmax vs Ktapp relationship (linear regression)), the “estimated true Kt” value is listed as 1.8 ± 1.6 µM. Further, in test [1] (knockdown (shRNA #6) vs control cells, […] [14C]TEA plus 1.0 nM [3H]MPP), the “reduction in the 15 sec uptake in OCT2 knockdown cells” value turned out to be 55%. Further, in test [1] (knockdown vs control cells), the “reduction of Jmax in OCT2 knockdown cells” value is 90%.
Take `CN(C)C(=N)N=C(N)N` [Metformin]: in test [2], the Jmax is on record as 265 pmol cm^−2 min^−1 and the Ktapp is given as 378 µM. Further, the “median Jmax” value in test [3] is ~ 350 pmol cm^−2 min^−1. Moreover, in test [1], the “true Kt for OCT2-mediated transport (suggested)” value was ~ 1000 µM.

Source of the values: article PMC4529401 (Pharmaceutical research, 2015).
